Measured values taken from PMC5652740, “Inhibition of HIV-1 infection in humanized mice and metabolic stability of protein phosphatase-1-targeting small molecule 1E7-03” (Oncotarget, 2017).
Read-outs that look alike come from different tables or passages of the source.

Columns and labels:
[1] = 1E7-03 degradation in mouse plasma; format: in vitro ADME; details: for % of 1E7-03 degraded: mouse plasma, 10 μM
Procedure: A 10 μl aliquots from each sample were loaded to a LC-20AD nano HPLC system (Shimadzu Corporation, Columbia, MD, USA) coupled to LTQ XL Orbitrap mass spectrometer (Thermo Fisher Scientific) with the installed Xcalibur software (version 2.0.7, Thermo Fisher Scientific). Liquid chromatography was carried out on an in-house made nano-HPLC column (Polymicro Technologies Inc., Phoenix, AZ, USA) packed with reverse phase PolySulfoethyl A, 5μM, 200 Å (PolyLC Inc., Columbia, MD, USA). Mobile phase A was 0.1% formic acid in water and mobile phase B - 0.1% formic acid in acetonitrile. The elution was performed at a flow rate of 600 nl/min over 40 min using a multisegment linear gradient of mobile phase B as follows: 0–6.02 min, 1% B; 6.02–6.11 min, 1–2% B; 6.11–20 min, 2−80% B; 20–25 min, 80% B; 25–30 min, 80–85% B; 30–31 min, […]; 31–40 min, 2% B (v/v). The Orbitrap was operated under data-dependent acquisition mode. The spray voltage, capillary temperature and capillary voltage were set to 2.0 kV, 200 °C, and 39.5 V, respectively. Full-scan mass spectra were acquired in Orbitrap over 150−1500 m/z with a resolution of 30 000, followed by MS^n scans by CID activation mode. The precursor ions were fragmented with collision energy of 18 with activation Q of 0.25 and an activation time of 30 ms. Dynamic exclusion was enabled with a repeat count of 2, a repeat duration of 15 s, exclusion duration of 20 s, an exclusion list size of 50. The mass spectrometer was also operated in NL scan of m/z 18.01, 45.05, 71.03 and 72.02 and MRM mode. The MRM transitions were controlled by a segmented program in order to short the scan cycle and increase sensitivity.
1E7-03 dissolved in DMSO (10 mM stock solution) was mixed with mouse plasma (Sigma-Aldrich), guinea pig plasma (Sigma-Aldrich), ferret plasma (BioreclamationIVT), monkey plasma (courtesy of Binhua Ling, PhD, Tulane University) and human plasma (collected from heathy volunteer by the Center for Sickle Cell Disease at Howard University) to the final concentration of 10 μM and incubated at 37°C. Aliquots were collected at different time points for up to 24 hrs. The resulting sample (60 μl) was mixed with 240 μl of cold acetone, vortexed for 2 min, kept at –20°C for 30 min, and then the precipitated protein was removed by centrifugation at 13,000 × g for 5 min. The supernatant was transferred to a clean test tube and evaporated to dryness using a SpeedVac concentrator. The residue reconstituted in 60 μl of acetonitrile for LC/FT-MS analysis. All experiments were run parallel in triplicates.

[2] = biological target: T1, Recombinant PP1 (human PP1α residues 7–300) (Homo sapiens, UniProt P62136); experiment: Surface plasmon resonance direct binding to immobilized PP1; details: SPR
T1 construct: human PP1α (residues 7–300); His; made in house; host or cells: BL21 (DE3) Escherichia coli, co-expressed with GroEL/GroES chaperones
T1 sequence (P62136 7-300): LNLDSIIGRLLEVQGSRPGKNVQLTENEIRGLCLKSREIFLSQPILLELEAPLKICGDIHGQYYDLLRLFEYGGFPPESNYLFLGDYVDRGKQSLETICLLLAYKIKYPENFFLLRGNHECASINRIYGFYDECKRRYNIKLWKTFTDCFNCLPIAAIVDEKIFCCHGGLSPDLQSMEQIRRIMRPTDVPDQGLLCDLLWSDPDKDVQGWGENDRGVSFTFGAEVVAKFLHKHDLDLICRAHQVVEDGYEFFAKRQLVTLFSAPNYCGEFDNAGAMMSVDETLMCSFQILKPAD
Procedure: PP1 was purified as previously described. BL21 (DE3) Escherichia coli cells (Invitrogen, Carlsbad, CA, USA) were -transformed with a vector expressing human PP1α (residues 7–300) and pGR07, which expresses GroEL/[…] chaperones (both gifts from Dr Mathieu Bollen and Monique Beullens, KU Leuven, Belgium). The cells were grown in media supplemented with 1 mM MnCl2 at 30°C to an A600 =0.5. Arabinose (2 g per L) was added to induce expression of the GroEL/GroES chaperones. When A600 =1 was reached, the cells were transferred to 10°C and PP1 expression was induced with 0.1 mM Isopropyl β-D-1-thiogalactopyranoside for 20 hrs. Harvested cells were lysed using sonication in a solution containing in 50 mM Tris-HCl (pH 8.0), 5 mM imidazole, 700 mM NaCl, 1 mM MnCl2, 0.1% Triton X-100 (v/v) and protease inhibitors. His-tagged PP1 was purified using a Ni-NTA IMAC column (Qiagen, Valencia, CA, USA). Purified PP1 was dialyzed and stored at −70°C in 50 mM Tris-HCl (pH 8.0), 5 mM imidazole, 700 mM NaCl and 1 mM MnCl2. PP1 activity was then assayed as previously described.
The SPR measurements were conducted on Biacore T200 instrument (GE Healthcare, Piscataway, NJ) at 25°C. Recombinant PP1 was immobilized on a CM5 chip by amine coupling (GE Healthcare). PP1 (200 nM) was captured on flow cell 2 in 10 mM acetate buffer, pH 5.0, supplemented with 2 mM MnCl2. […] Flow cell 1 was used as a reference surface to subtract background signal. Also injections of the buffer alone were used to provide double reference subtraction. […] For binding and kinetics experiments, all compounds were diluted in the running buffer, at 40 μM, 20 μM, 10 μM, 5 μM, 2.5 μM, 1.25 μM and 0 μM and then passed over the two flow cells at a flow rate of 100 μl/min for 60 sec. The number of response units was recorded after the subtraction of the reference flow cell's value (Fc2-1). Two repetitions were performed for each injection. Data were analyzed using the BiaEvaluation software of Biacore with a 1:1 binding model. […] All the small molecular weight compounds were used at 1 μM.

HIV-1-LUC-G = experiment: Single round HIV-1 replication, luciferase readout in CEM T cells; format: cell-based; details: Human immunodeficiency virus 1, T-cell
Procedure: CEM T cells were infected with VSVG-pseudotyped pNL4-3.Luc.R-E-virus (HIV-1-LUC-G) prepared as previously described and cultured in 96-well white plates ( 1.25 × 10^6 cells/ml, 100 μl/well) at 37°C and 5% CO2. The cells were treated with serial dilutions of the compounds or vehicle (DMSO) and incubated overnight. At 24 hrs post infection, 100 μl of reconstituted luciferase buffer (Luclite Kit, Perkin Elmer) was added to each well, incubated for 10 min and luminescence was measured using Glo-Max Microplate Multimode reader (Promega).

[3] = 1:1 binding model, 25°C, read-out: PP1 WT KD
[4] = as quoted in the discussion, read-out: KD
[5] = read-out: One round HIV-1 infection IC50, CEM T cells, HIV-1-LUC-G, Figure 4A
[6] = read-out: One round HIV-1 infection IC50, CEM T cells, HIV-1-LUC-G, Figure 7D

Compound | stability in mice and mouse plasma ([1]; in words) | % of 1E7-03 degraded ([1]; 37°C, 2 hrs) [%] | % of 1E7-03 degraded ([1]; 37°C, 4 hrs) | Kd [2, 3] [µM] | Kd [2, 4] [µM] | IC50 (HIV-1-LUC-G; [5]) [µM] | IC50 (HIV-1-LUC-G; [6]) [µM] | time at which DP1 levels reached their maximum ([1]; 10 μM 1E7-03 in mouse plasma, 37°C) [h] | level of degradation product in mouse plasma ([1]; 10 μM 1E7-03 in mouse plasma, 37°C, up to 24 hrs)
CCNC(=O)NC(=O)C(C)OC(=O)c1c2c(nc3ccccc13)/C(=C/c1ccc(OC)c(OC)c1)CC2 (stereo not shown) [1E7-03] | not stable | 40 | over 85% | 6.16 | 6.2 | 1.7 | 2 | – | –
COc1ccc(/C=C2\CCCc3c2nc2ccccc2c3C(=O)OC(C)C(=O)OC(C)(C)C)cc1OC (stereo not shown) [DP1-07] | – | – | – | – | – | – | > 66 | – | –
COc1ccc(/C=C2\CCc3c2nc2ccccc2c3C(=O)OC(C)C(=O)O)cc1OC (stereo not shown) [DP1] | – | – | – | 3.75 | ~4 | 17 | – | 2 | –
COc1ccc(/C=C2\CCc3c2nc2ccccc2c3C(=O)O)cc1OC [DP3] | – | – | – | 4.88 | ~4 | > 180 | – | – | low levels
